Among the data in US9745283B2, “Uracil derivatives as AXL and c-MET kinase inhibitors” (priority 2011, dated 2017) are IC50 values, retold here.

The target of assay [1] is recombinant human baculovirus-expressed AXL (Homo sapiens (Human), UniProt P30530). The assay is described as follows: AXL Kinase Assay (HTRF KinEASE). It counts as biochemical. The following applies: average of two or more determinations. Here is the method:
The ability of compounds to inhibit the kinase activity of recombinant human baculovirus-expressed AXL was measured by homogeneous TRF (HTRF) using Cisbio's KinEASE™ assay system in white 384-well Optiplates. Assay buffer contained 1 mM DTT, 2 mM MnCl2, 2% DMSO, […] supplement enzymatic buffer, and 1× enzymatic buffer. A 2× concentration of tyrosine kinase (TK) substrate-biotin/ATP mixture made in assay buffer was added to plates at 10 μL/well using the Multidrop Combi (Thermo Fisher Scientific, Waltham, Mass.). […] Compounds (100 nL), diluted in 100% DMSO on the Biomek FX, (Beckman Coulter, Inc., Brea, Calif.), were transferred to the assay plates using the Biomek FX pintool (2.5% final DMSO in assay). […] Plates were sealed, briefly shaken and incubated at 25° C. for 30 minutes. […] Plates were sealed, briefly shaken and incubated at 25° C. for 1 hour.
Inhibition curves for compounds were generated by plotting percent control activity versus log 10 of the concentration of compound. IC50 values were calculated by nonlinear regression using the sigmoidal dose-response (variable slope) equation in GraphPad Prism as follows: y=bottom+(top−bottom)/(1+10(log IC50−x)*Hill Slope) where y is the % kinase activity at a given concentration of compound, x is the logarithm of the concentration of compound, bottom is the % of control kinase activity at the highest compound concentration tested, and top is the % of control kinase activity at the lowest compound concentration examined. The values for bottom and top were fixed at 0 and 100, respectively.
(In general: TR-FRET usually uses a lanthanide donor and a delayed reading to cut background.)

In assay [2] the target is recombinant human baculovirus-expressed cMET (Homo sapiens (Human), UniProt P08581). The assay is described as follows: C-MET Kinase Assay (HTRF KinEASE). It counts as biochemical. The essentials:
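HTRF KinEASE format with recombinant human baculovirus-expressed cMET at 8 ng/mL, biotinylated peptide at 0.1 μM and ATP at 0.02 μM. IC50 came from percent control activity versus log concentration, fitted by nonlinear regression to a variable-slope sigmoidal equation with bottom fixed at 0 and top at 100.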

Where [3] appears, read: average of two or more determinations, read-out: c-MET IC50.

pIC50: −log10 of the molar value. Read-outs that look alike come from different tables or passages of the source. A value given as a limit tells only on which side of the number the result lay.

`COc1cc2nccc(Oc3ccc(NC(=O)c4cn(C5CCC5)c(=O)n(-c5ccc(F)cc5)c4=O)cc3F)c2cc1OC` [Example 29, 1-Cyclobutyl-3-(4-fluorophenyl)-2,4-dioxo-1,2,3,4-tetrahydropyrimidine-5-carboxylic acid [4-(6,7-dimethoxyquinolin-4-yloxy)-3-fluorophenyl]-amide]: the pIC50 (commonly −log10 of the IC50, conventionally taken in molar units) in assay [1] was more than 8.00; in assay [2] (setting [3]), 7.00 to 8.00.
On the same counts, the results for `COc1cc2nccc(Oc3ccc(NC(=O)c4cn(C(C)C)c(=O)n(-c5ccc(F)cc5)c4=O)nc3)c2cc1OC` [Example 34, 3-(4-Fluorophenyl)-1-isopropyl-2,4-dioxo-1,2,3,4-tetrahydropyrimidine-5-carboxylic acid [5-(6,7-dimethoxyquinolin-4-yloxy)-pyridin-2-yl]-amide] are more than 8.00 and 7.00 to 8.00.
On to `CCOc1cc2nccc(Oc3ccc(NC(=O)c4cn(CC)c(=O)n(-c5ccc(F)cc5)c4=O)cc3F)c2cc1OCC` [Example 33, 1-Ethyl-3-(4-fluorophenyl)-2,4-dioxo-1,2,3,4-tetrahydropyrimidine-5-carboxylic acid [4-(6,7-diethoxyquinolin-4-yloxy)-3-fluorophenyl]-amide], for which the values for the pIC50 in assay [1] and in assay [2] (setting [3]) were more than 8.00 and 7.00 to 8.00, respectively.
On the same counts, the results for `CCOCCn1cc(C(=O)Nc2ccc(Oc3ccnc4cc(OC)c(OC)cc34)c(F)c2)c(=O)n(-c2ccc(F)cc2)c1=O` [Example 4, 1-(2-Ethoxyethyl)-3-(4-fluorophenyl)-2,4-dioxo-1,2,3,4-tetrahydropyrimidine-5-carboxylic acid [4-(6,7-dimethoxyquinolin-4-yloxy)-3-fluorophenyl]-amide] are more than 8.00 and 7.00 to 8.00.
On the same counts, the results for `COc1cc2nccc(Oc3ccc(NC(=O)c4c[nH]c(=O)n(-c5ccc(F)cc5)c4=O)cc3OC)c2cc1OC` [Example 150, 3-(4-Fluoro-phenyl)-2,4-dioxo-1,2,3,4-tetrahydro-pyrimidine-5-carboxylic acid [4-(6,7-dimethoxy-quinolin-4-yloxy)-3-methoxy-phenyl]-amide] are more than 8.00 and 7.00 to 8.00.
On the same counts, the results for `COc1cc2nccc(Oc3ccc(NC(=O)c4cn(CCCOCc5ccccc5)c(=O)n(-c5ccc(F)cc5)c4=O)c(F)c3)c2cc1OC` [Example 22, 1-(3-Benzyloxypropyl)-3-(4-fluorophenyl)-2,4-dioxo-1,2,3,4-tetrahydropyrimidine-5-carboxylic acid [4-(6,7-dimethoxyquinolin-4-yloxy)-2-fluorophenyl]-amide] are more than 8.00 and 7.00 to 8.00.
For the compound `COc1cc2nccc(Oc3ccc(NC(=O)c4nn(C)c(=O)n(CC5CC5)c4=O)cc3F)c2cc1OC` [Example 125, 4-Cyclopropylmethyl-2-methyl-3,5-dioxo-2,3,4,5-tetrahydro-[1,2,4]triazine-6-carboxylic acid [4-(6,7-dimethoxy-quinolin-4-yloxy)-3-fluoro-phenyl]-amide], the negative-log IC50 (pIC50) is more than 8.00 in assay [1] and 7.00 to 8.00 in assay [2] (setting [3]).
The corresponding values for `COCCn1cc(C(=O)Nc2ccc(Oc3ccnc4cc(OC)c(OC)cc34)c(F)c2)c(=O)n(-c2ccc(F)cc2)c1=O` [Example 3, 3-(4-Fluorophenyl)-1-(2-methoxyethyl)-2,4-dioxo-1,2,3,4-tetrahydropyrimidine-5-carboxylic acid [4-(6,7-dimethoxyquinolin-4-yloxy)-3-fluorophenyl]-amide] are more than 8.00 and 7.00 to 8.00.
On the same counts, the results for `COc1cc2nccc(C(O)c3ccc(NC(=O)c4cn(C)c(=O)n(-c5ccc(F)cc5)c4=O)cc3F)c2cc1OC` (stereo not shown) [Example 57, 3-(4-fluoro-phenyl)-1-methyl-2,4-dioxo-1,2,3,4-tetrahydro-pyrimidine-5-carboxylic acid {4-[(6,7-dimethoxy-quinolin-4-yl)-hydroxy-methyl]-3-fluoro-phenyl}-amide] are more than 8.00 and 6.00 to 7.00.
For `COc1cc2nccc(Oc3ccc(NC(=O)c4nn(CC(C)=O)c(=O)n(-c5ccc(F)cc5)c4=O)cc3F)c2cc1OC` [Example 112, 4-(4-Fluorophenyl)-3,5-dioxo-2-(2-oxo-propyl)-2,3,4,5-tetrahydro-[1,2,4]triazine-6-carboxylic acid [4-(6,7-dimethoxyquinolin-4-yloxy)-3-fluorophenyl]-amide], the pIC50 in assay [1] was more than 8.00; in assay [2] (setting [3]) it was 7.00 to 8.00.
The corresponding values for `COc1cc2nccc(Oc3ccc(NC(=O)c4nn(C)c(=O)n(CC(C)(C)C)c4=O)cc3F)c2cc1OC` [Example 129, 4-(2,2-Dimethylpropyl)-2-methyl-3,5-dioxo-2,3,4,5-tetrahydro-[1,2,4]triazine-6-carboxylic acid [4-(6,7-dimethoxyquinolin-4-yloxy)-3-fluorophenyl]-amide] are more than 8.00 and 7.00 to 8.00.
On the same counts, the results for `COc1cc2nccc(Oc3ccc(NC(=O)c4c[nH]c(=O)n(-c5ccc(F)cc5)c4=O)cc3F)c2cc1OC` [Example 17, 3-(4-Fluorophenyl)-2,4-dioxo-1,2,3,4-tetrahydropyrimidine-5-carboxylic acid [4-(6,7-dimethoxyquinolin-4-yloxy)-3-fluorophenyl]-amide] are more than 8.00 and more than 8.00.
`COc1cc2nccc(Oc3ccc(NC(=O)c4cn(CC(=O)N5CCCC5)c(=O)n(-c5ccc(F)cc5)c4=O)cc3F)c2cc1OC` [Example 82, 3-(4-Fluoro-phenyl)-2,4-dioxo-1-(2-oxo-2-pyrrolidin-1-yl-ethyl)-1,2,3,4-tetrahydro-pyrimidine-5-carboxylic acid [4-(6,7-dimethoxy-quinolin-4-yloxy)-3-fluoro-phenyl]-amide]: the pIC50 was more than 8.00 in assay [1] and 7.00 to 8.00 in assay [2] (setting [3]).
With `COc1cc2nccc(Oc3ccc(NC(=O)c4nn(C)c(=O)n(CC5CCOCC5)c4=O)cc3F)c2cc1OC` [Example 126, 2-Methyl-3,5-dioxo-4-(tetrahydro-pyran-4-ylmethyl)-2,3,4,5-tetrahydro-[1,2,4]triazine-6-carboxylic acid [4-(6,7-dimethoxy-quinolin-4-yloxy)-3-fluoro-phenyl]-amide], the pIC50 in assay [1] is more than 8.00; in assay [2] (setting [3]) it was 6.00 to 7.00.
In the case of `C#CCn1c(=O)c(C(=O)Nc2ccc(Oc3ccnc4cc(OC)c(OC)cc34)c(F)c2)nn(C)c1=O` [Example 115, 2-Methyl-3,5-dioxo-4-prop-2-ynyl-2,3,4,5-tetrahydro-[1,2,4]triazine-6-carboxylic acid [4-(6,7-dimethoxy-uinolin-4-yloxy)-3-fluoro-phenyl]-amide], the pIC50 in assay [1] is more than 8.00; in assay [2] (setting [3]), 7.00 to 8.00.
As for `COc1cc2nccc(Oc3ccc(NC(=O)c4cn(C(C)C)c(=O)n(-c5ccc(F)cc5)c4=O)cc3F)c2cc1OC` [Example 5, 3-(4-Fluorophenyl)-1-isopropyl-2,4-dioxo-1,2,3,4-tetrahydropyrimidine-5-carboxylic acid [4-(6,7-dimethoxyquinolin-4-yloxy)-3-fluorophenyl]-amide], the pIC50 in assay [1] was more than 8.00; in assay [2], 7.00 to 8.00.
Consider `COc1cc(Oc2ccnc3cc(OC)c(OC)cc23)ccc1NC(=O)c1cn(C(C)C)c(=O)n(-c2ccc(F)cc2)c1=O` [Example 145, 1-Isopropyl-3-(4-fluoro-phenyl)-2,4-dioxo-1,2,3,4-tetrahydro-pyrimidine-5-carboxylic acid [4-(6,7-dimethoxy-quinolin-4-yloxy)-2-methoxy-phenyl]-amide], for which the pIC50 is more than 8.00 in assay [1] and 7.00 to 8.00 in assay [2] (setting [3]).
